Results published in the supplement of paper PMC10307832.

Assays:
Experiment in all cases: relative viability (nuclei count vs DMSO), 5 days (fraction); higher = more cells survive
[1] = compound: COc1cccc2c1C(=O)c1c(O)c3c(c(O)c1C2=O)C[C@@](O)(C(=O)CO)C[C@@H]3O[C@H]1C[C@H](N)[C@H](O)[C@H](C)O1 [Doxorubicin] + O=C(CCCCCCC(=O)Nc1ccccc1)NO [Vorinostat] (partner 1 µM)
How it was run: (§1)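 Lung cancer cell lines in 1536-well plates got either a single drug or a fixed anchor-drug dose together with five library-drug doses (not always all listed) in √10 steps, by pin tool, on the day after seeding. Nuclei were counted after 5 days, and relative viability is the treated-to-vehicle ratio of nuclei counts. Values are medians of duplicate plates.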

[2] = compound: COc1cccc2c1C(=O)c1c(O)c3c(c(O)c1C2=O)C[C@@](O)(C(=O)CO)C[C@@H]3O[C@H]1C[C@H](N)[C@H](O)[C@H](C)O1 [Doxorubicin] + C[C@]1(O)C[C@@H](c2nc(-c3ccc4ccc(-c5ccccc5)nc4c3)c3c(N)nccn32)C1 [Linsitinib] (partner 1 µM)
How it was run: as §1

[3] = compound: COc1cccc2c1C(=O)c1c(O)c3c(c(O)c1C2=O)C[C@@](O)(C(=O)CO)C[C@@H]3O[C@H]1C[C@H](N)[C@H](O)[C@H](C)O1 [Doxorubicin] + COc1cccc2cc(-c3nc([C@H]4CC[C@H](C(=O)O)CC4)n4ncnc(N)c34)[nH]c12 [OSI-027] (partner 0.5 µM)
How it was run: as §1

[4] = compound: COc1cccc2c1C(=O)c1c(O)c3c(c(O)c1C2=O)C[C@@](O)(C(=O)CO)C[C@@H]3O[C@H]1C[C@H](N)[C@H](O)[C@H](C)O1 [Doxorubicin] + Cc1nc(NC(=O)N2CCC[C@H]2C(N)=O)sc1-c1ccnc(C(C)(C)C(F)(F)F)c1 [Alpelisib] (partner 2 µM)
How it was run: as §1

Row | Cell Line | relative viability ([1]; first compound 0.001 µM) | relative viability ([1]; first compound 0.003162 µM) | relative viability ([1]; first compound 0.01 µM) | relative viability ([1]; first compound 0.03162 µM) | relative viability ([1]; first compound 0.1 µM) | relative viability ([2]; first compound 0.001 µM) | relative viability ([2]; first compound 0.003162 µM) | relative viability ([2]; first compound 0.01 µM) | relative viability ([2]; first compound 0.03162 µM) | relative viability ([2]; first compound 0.1 µM) | relative viability ([3]; first compound 0.001 µM) | relative viability ([3]; first compound 0.003162 µM) | relative viability ([3]; first compound 0.01 µM) | relative viability ([3]; first compound 0.03162 µM) | relative viability ([3]; first compound 0.1 µM) | relative viability ([4]; first compound 0.001 µM) | relative viability ([4]; first compound 0.003162 µM) | relative viability ([4]; first compound 0.01 µM) | relative viability ([4]; first compound 0.03162 µM) | relative viability ([4]; first compound 0.1 µM)
1 | NCI-H1651 | 0.572 | 0.591 | 0.569 | 0.533 | 0.495 | 0.838 | 0.944 | 0.831 | 0.401 | 0.292 | 0.682 | 0.679 | 0.554 | 0.298 | 0.22 | 0.902 | 0.996 | 0.875 | 0.424 | 0.201
2 | BEN | 0.617 | 0.612 | 0.467 | 0.58 | 0.502 | 0.984 | 0.863 | 0.983 | 0.621 | 0.79 | 0.301 | 0.28 | 0.335 | 0.301 | 0.29 | 1.09 | 1.04 | 0.913 | 0.656 | 0.886
3 | EMC-BAC-2 | 0.872 | 0.311 | 0.241 | 0.22 | 0.114 | 0.797 | 0.864 | 0.84 | 0.854 | 0.776 | 0.5 | 0.353 | 0.379 | 0.239 | 0.197 | 0.799 | 0.88 | 0.679 | 0.734 | 0.717
4 | LXF-289 | 0.703 | 0.787 | 0.745 | 0.805 | 0.744 | 0.997 | 0.968 | 0.946 | 1.04 | 0.993 | 0.613 | 0.832 | 0.794 | 0.834 | 0.819 | 1.02 | 1.1 | 1.07 | 1.08 | 1.06
5 | ABC-1 | 1.25 | 0.999 | 0.908 | 0.509 | 0.309 | 0.787 | 0.727 | 0.805 | 0.435 | 0.337 | 0.431 | 0.494 | 0.424 | 0.306 | 0.32 | 1.04 | 0.922 | 1.02 | 0.504 | 0.361
6 | NCI-H358 | 0.838 | 0.679 | 0.407 | 0.138 | 0.101 | 0.756 | 0.896 | 0.529 | 0.215 | 0.176 | 0.853 | 0.642 | 0.417 | 0.121 | 0.0934 | 0.796 | 0.916 | 0.569 | 0.19 | 0.154
7 | NCI-H1355 | 0.604 | 0.602 | 0.631 | 0.599 | 0.625 | 0.793 | 0.862 | 0.81 | 0.872 | 0.785 | 0.374 | 0.422 | 0.396 | 0.432 | 0.389 | 0.868 | 0.96 | 0.889 | 0.839 | 0.823
8 | EBC-1 |  |  |  |  |  | 0.826 | 0.839 | 0.983 | 0.722 | 0.985 |  |  |  |  |  | 0.835 | 0.921 | 0.823 | 0.61 | 0.405
9 | NCI-H3122 | 0.839 | 0.982 | 0.853 | 0.907 | 0.998 | 1.05 | 0.995 | 1.06 | 1.06 | 1 | 0.489 | 0.89 | 0.819 | 0.382 | 0.314 | 0.835 | 0.776 | 0.815 | 0.782 | 0.768
10 | NCI-H2009 | 0.682 | 0.77 | 0.738 | 0.534 | 0.329 | 1.16 | 1.15 | 1.28 | 0.953 | 0.639 | 0.634 | 0.687 | 0.568 | 0.632 | 0.402 | 1.08 | 1.2 | 1.17 | 1.07 | 0.478
11 | NCI-H1563 |  |  |  |  |  | 1.07 | 0.935 | 0.898 | 0.634 | 0.587 | 0.813 | 0.788 | 0.684 | 0.589 | 0.5 | 0.888 | 0.824 | 0.726 | 0.529 | 0.51
12 | NCI-H1648 | 0.421 | 0.376 | 0.468 | 0.285 | 0.467 |  |  |  |  |  | 0.291 | 0.276 | 0.261 | 0.259 | 0.266 |  |  |  |  | 
13 | ChaGo-K-1 | 0.763 | 0.76 | 0.721 | 0.698 | 0.574 |  |  |  |  |  | 0.587 | 0.588 | 0.63 | 0.439 | 0.398 |  |  |  |  | 
14 | NCI-H2170 | 0.737 | 0.939 | 0.872 | 0.702 | 0.881 |  |  |  |  |  | 0.25 | 0.809 | 0.745 | 0.614 | 0.795 | 0.896 | 0.966 | 0.727 | 0.682 | 0.877
15 | A549 |  |  |  |  |  |  | 0.609 | 0.502 | 0.52 | 0.646 |  |  |  |  |  | 0.799 | 0.676 | 0.48 | 0.132 | 0.0649
16 | NCI-H1650 | 0.52 | 0.625 | 0.417 | 0.181 | 0.16 |  |  |  |  |  | 0.496 | 0.567 | 0.394 | 0.153 | 0.144 |  |  |  |  | 
17 | NCI-H1299 |  |  |  |  |  | 0.949 | 0.942 | 1.03 | 0.943 | 0.999 |  |  |  |  |  | 1.06 | 1.12 | 1.08 | 1.07 | 1.06
18 | NCI-H522 | 0.869 | 0.93 | 0.716 | 0.786 | 0.878 |  |  |  |  |  | 0.568 | 0.72 | 0.792 | 0.756 | 0.709 |  |  |  |  | 
19 | NCI-H1792 |  |  |  |  |  | 0.563 | 0.612 | 0.543 | 0.455 | 0.474 |  | 0.674 | 0.713 | 0.709 | 0.625 | 0.794 | 0.836 | 0.538 | 0.679 | 0.548
20 | IA-LM | 0.837 | 1.21 | 0.937 | 0.946 | 0.975 | 0.519 | 0.706 | 0.575 | 0.573 | 0.74 |  |  |  |  |  | 0.675 | 0.742 | 0.669 | 0.544 | 0.427
21 | SW 900 |  | 0.452 | 0.394 | 0.346 | 0.26 |  |  |  |  |  | 0.373 | 0.708 | 0.571 | 0.401 | 0.226 |  |  |  |  | 
